In test [1] the target is Glyceraldehyde-3-phosphate dehydrogenase (Homo sapiens, UniProt P04406).
Test [2] has as its target T1, Tyrosine-protein phosphatase non-receptor type 22 (Homo sapiens, UniProt Q9Y2R2).
T1 sequence (Q9Y2R2 whole entry): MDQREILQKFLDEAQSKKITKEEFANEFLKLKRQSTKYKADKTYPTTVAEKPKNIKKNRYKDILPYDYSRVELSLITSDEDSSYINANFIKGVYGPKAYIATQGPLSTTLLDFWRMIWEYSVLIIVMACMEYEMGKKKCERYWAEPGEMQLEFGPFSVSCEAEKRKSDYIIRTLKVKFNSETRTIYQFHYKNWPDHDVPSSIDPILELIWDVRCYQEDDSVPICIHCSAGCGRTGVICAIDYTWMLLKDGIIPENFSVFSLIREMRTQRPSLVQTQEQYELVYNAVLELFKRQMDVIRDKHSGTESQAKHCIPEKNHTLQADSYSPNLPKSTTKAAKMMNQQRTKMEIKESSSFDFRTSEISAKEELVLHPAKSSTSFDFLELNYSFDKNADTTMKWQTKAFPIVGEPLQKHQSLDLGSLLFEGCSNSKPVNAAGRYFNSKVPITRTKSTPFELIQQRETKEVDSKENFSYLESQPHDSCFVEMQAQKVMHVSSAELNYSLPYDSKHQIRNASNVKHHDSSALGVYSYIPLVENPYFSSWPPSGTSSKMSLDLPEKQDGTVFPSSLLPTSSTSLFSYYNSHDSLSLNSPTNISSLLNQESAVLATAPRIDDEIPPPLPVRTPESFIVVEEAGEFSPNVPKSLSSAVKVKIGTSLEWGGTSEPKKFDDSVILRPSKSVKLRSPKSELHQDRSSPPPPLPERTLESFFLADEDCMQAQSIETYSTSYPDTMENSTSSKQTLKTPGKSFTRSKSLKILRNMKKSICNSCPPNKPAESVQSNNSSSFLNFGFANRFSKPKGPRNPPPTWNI
In words: SAR LYP1 Fluorescent Assay using OMFP substrate for In Vitro dose response studies - Set 3. [Related pubchem assays (depositor defined):AID1779, AID1784, AID2140, AID2686]. Type of test: functional.

The target in test [3] is Tyrosine-protein phosphatase non-receptor type 12 (Homo sapiens, UniProt Q05209). In words: SAR Selectivity Analysis of small molecule inhibitors of PEST using pCAP in a fluorescence assay. [Related pubchem assays (depositor defined):AID1779, AID1784, AID2135]. Type of test: functional.
Sequence of Tyrosine-protein phosphatase non-receptor type 12 (Q05209 whole entry): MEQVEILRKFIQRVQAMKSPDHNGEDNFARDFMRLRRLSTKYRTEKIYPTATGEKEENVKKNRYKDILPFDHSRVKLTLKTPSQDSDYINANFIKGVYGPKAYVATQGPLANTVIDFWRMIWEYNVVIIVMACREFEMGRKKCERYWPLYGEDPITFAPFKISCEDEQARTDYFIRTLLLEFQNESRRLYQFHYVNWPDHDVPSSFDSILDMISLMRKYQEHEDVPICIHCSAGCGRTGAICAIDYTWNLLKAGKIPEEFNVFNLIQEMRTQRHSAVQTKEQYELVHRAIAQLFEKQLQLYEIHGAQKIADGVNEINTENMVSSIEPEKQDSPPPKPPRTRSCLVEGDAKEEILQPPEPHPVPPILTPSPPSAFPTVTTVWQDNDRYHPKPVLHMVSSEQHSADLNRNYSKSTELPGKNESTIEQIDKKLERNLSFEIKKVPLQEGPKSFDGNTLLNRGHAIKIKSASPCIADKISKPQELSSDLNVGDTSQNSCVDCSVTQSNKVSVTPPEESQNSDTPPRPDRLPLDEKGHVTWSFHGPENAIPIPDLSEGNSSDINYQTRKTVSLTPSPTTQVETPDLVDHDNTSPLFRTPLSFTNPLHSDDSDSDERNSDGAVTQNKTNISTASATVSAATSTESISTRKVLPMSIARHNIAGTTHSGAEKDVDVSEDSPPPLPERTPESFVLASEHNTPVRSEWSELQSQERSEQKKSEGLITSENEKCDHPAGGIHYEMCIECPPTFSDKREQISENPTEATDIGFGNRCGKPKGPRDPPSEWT
In test [4] the target is T1, Tyrosine-protein phosphatase non-receptor type 22. In words: LYP (PTPN22) phosphatase inhibitor potency, SAR follow-up, biochemical, pCAP fluorogenic substrate, fluorescence, set 3 (AID 449727). Type of test: functional.
Test [5] concerns the target Melanin-concentrating hormone receptor 1 (Homo sapiens, UniProt Q99705). Put plainly: Late-stage fluorescence-based counterscreen for antagonists of the G-protein coupled receptor 7 (GPR7): cell-based dose response assay to identify antagonists of the melanin-concentrating hormone receptor 1 (MCHR1). [Related pubchem assays (depositor defined):AID1861, AID1880, AID1952, AID2148, AID2251, AID2257, AID485339]. It counts as functional. Background: Counterscreens check selectivity or assay interference.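 Also: stimulated with 30 nM MCH peptide agonist.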

Test [6] deals with T2, Neuropeptides B/W receptor type 1 (Homo sapiens, UniProt P48145).
T2 sequence (P48145 whole entry): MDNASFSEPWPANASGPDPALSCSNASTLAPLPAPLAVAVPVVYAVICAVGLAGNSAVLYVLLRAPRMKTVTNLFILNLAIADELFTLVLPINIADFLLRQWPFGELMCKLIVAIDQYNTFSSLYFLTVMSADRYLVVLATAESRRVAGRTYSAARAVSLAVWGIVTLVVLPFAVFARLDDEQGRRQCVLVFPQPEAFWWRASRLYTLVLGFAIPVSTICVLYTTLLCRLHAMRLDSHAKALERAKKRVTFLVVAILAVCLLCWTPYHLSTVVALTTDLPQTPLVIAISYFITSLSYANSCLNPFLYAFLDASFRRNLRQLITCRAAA
In words: GPR7 antagonist potency, late-stage follow-up, cell-based, fluorescence, dose response (AID 463251). Type of test: functional.

Another test deals with Protein Rev (Human immunodeficiency virus type 1 group M subtype B (isolate HXB2)(HIV-1), UniProt P04618). In words: inhibitors of Rev binding to RRE RNA, dose response, biochemical, fluorescence polarization, HIV-1 (AID 434976). The arrangement: species or system Human immunodeficiency virus 1. On the technique in general: Fluorescence polarisation rises when a labelled molecule tumbles more slowly, as on binding a larger partner.
Sequence of Protein Rev (P04618 whole entry): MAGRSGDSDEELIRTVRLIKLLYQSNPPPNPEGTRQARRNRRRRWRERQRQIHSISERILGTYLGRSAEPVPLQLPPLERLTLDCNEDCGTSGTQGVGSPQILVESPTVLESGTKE

Test [7] concerns the target T3, Insulin-degrading enzyme (Homo sapiens, UniProt P14735).
T3 sequence (P14735 whole entry): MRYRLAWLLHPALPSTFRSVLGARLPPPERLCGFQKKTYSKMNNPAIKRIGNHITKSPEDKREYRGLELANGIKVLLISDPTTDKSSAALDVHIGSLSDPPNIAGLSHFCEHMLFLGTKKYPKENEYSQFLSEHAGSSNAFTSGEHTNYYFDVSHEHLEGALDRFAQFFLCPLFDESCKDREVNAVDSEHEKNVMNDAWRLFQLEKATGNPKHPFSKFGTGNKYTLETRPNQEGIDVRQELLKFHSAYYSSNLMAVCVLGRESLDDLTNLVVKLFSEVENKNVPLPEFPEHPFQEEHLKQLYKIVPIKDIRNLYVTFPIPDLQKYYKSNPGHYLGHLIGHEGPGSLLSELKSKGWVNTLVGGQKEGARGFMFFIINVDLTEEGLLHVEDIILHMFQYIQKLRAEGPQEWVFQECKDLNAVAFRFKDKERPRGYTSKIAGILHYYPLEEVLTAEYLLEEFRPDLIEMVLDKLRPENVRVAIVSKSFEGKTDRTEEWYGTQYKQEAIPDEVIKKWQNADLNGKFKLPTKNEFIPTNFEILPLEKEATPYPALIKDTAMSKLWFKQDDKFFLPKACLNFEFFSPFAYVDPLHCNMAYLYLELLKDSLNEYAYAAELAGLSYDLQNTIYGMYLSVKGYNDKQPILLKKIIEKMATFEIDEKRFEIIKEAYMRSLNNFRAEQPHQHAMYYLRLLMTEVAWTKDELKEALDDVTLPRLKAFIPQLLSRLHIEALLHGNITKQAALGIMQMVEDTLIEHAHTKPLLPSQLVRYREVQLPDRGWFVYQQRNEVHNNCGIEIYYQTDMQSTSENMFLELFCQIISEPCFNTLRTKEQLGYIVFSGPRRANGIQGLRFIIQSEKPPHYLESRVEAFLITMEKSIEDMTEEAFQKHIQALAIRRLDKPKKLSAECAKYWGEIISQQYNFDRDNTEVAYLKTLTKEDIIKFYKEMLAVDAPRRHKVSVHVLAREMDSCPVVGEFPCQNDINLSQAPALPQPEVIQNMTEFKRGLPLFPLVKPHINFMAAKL
In words: activators of recombinant IDE enzyme, dose response, counter-screen for IDE activator project, biochemical, fluorescence polarization (AID 588681).

The subject of test [8] is HEK293. In words: optical interference in Abeta FP readout, dose response, artefact control for IDE activator project, biochemical, fluorescence polarization (AID 588442). It counts as functional, cell-based. The settings on record: Homo sapiens.
Test [9] relates to HEK293. In words: HEK cell cytotoxicity by LDH release, dose response, cytotoxicity control for IDE activator project, fluorescence, HEK cells (AID 588440).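 Also: cytotoxicity by LDH release measuring loss of membrane integrity.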 Type of test: functional, cell-based. The settings on record: Homo sapiens. Background: Release of lactate dehydrogenase indicates damage to the cell membrane.
For test [10], the target named is Female germline-specific tumor suppressor gld-1 (Caenorhabditis elegans, UniProt Q17339). In words: inhibitors of GLD-1 binding to TGE RNA, dose response, biochemical, fluorescence polarization, C. elegans (AID 2802).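 Also: fluorescence polarization of labeled TGE RNA bound by purified gld-1 protein.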
Sequence of Female germline-specific tumor suppressor gld-1 (Q17339 whole entry): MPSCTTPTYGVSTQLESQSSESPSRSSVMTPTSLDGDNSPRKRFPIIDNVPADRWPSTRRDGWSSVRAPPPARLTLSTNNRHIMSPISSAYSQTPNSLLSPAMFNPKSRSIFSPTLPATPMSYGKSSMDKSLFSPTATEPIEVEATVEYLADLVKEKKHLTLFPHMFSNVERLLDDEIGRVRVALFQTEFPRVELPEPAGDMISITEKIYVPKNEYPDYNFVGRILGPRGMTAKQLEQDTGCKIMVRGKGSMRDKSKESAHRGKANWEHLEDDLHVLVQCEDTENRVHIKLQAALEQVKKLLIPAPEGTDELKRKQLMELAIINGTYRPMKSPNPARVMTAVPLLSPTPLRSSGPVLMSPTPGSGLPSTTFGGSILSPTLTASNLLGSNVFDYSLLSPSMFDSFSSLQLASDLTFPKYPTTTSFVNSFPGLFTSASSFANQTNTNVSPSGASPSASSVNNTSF
In test [11] the target is T3, Insulin-degrading enzyme. In words: activators of endogenous IDE in HEK cells, dose response, cell-based, fluorescence polarization (AID 588439). Type of test: functional.
Test [12] can be described thus: HEp-2 cell cytotoxicity, dose response, cytotoxicity control for RSV inhibitor project, HTS (AID 2410). Type of test: functional. The note with it: human respiratory syncytial virus.
Test [13] is described as follows: cells. Type of test: functional, cell-based.
The target in another test is Trypsin (Sus scrofa, UniProt P00761). Put plainly: porcine trypsin inhibitors, dose response, selectivity assay for Rce1 protease inhibitor project, biochemical, quenched peptide fluorescence, cherry-pick (AID 488789).
Sequence of Trypsin (P00761 whole entry): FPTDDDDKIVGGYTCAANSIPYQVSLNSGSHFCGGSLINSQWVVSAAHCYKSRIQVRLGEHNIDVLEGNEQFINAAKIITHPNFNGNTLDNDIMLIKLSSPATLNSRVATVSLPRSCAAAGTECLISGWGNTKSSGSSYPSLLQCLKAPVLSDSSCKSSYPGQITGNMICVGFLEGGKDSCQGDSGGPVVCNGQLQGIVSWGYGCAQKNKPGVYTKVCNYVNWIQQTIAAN
For test [14], the target named is T4, Trace amine-associated receptor 1 (Homo sapiens, UniProt Q96RJ0).
T4 sequence (Q96RJ0 whole entry): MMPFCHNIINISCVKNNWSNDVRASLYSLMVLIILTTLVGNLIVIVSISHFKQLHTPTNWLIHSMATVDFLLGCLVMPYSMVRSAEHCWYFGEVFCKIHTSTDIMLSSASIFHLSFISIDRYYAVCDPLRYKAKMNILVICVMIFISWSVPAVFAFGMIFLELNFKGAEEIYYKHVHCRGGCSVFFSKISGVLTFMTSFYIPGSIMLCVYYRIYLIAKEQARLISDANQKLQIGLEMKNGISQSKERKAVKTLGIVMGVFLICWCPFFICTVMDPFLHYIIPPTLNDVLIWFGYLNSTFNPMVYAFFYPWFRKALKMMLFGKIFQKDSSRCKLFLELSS
Put plainly: Fluorescence-based cell-based high throughput dose response assay to identify agonists of the human trace amine associated receptor 1 (TAAR1). Type of test: functional.

Test [15] is described as follows: cells. Type of test: functional, cell-based. This is another data set of the same source.
Test [16] addresses T4, Trace amine-associated receptor 1. Put plainly: Counterscreen for agonists of the human trace amine associated receptor 1 (hTAAR1): Fluorescence-based cell-based high throughput dose response assay to identify hTAAR1 agonist that also desensitize TAAR1 receptor response. It counts as functional.

Molecules are shown by their SMILES. Activity calls are given as the source filed them.

Sequence of Glyceraldehyde-3-phosphate dehydrogenase (P04406 whole entry): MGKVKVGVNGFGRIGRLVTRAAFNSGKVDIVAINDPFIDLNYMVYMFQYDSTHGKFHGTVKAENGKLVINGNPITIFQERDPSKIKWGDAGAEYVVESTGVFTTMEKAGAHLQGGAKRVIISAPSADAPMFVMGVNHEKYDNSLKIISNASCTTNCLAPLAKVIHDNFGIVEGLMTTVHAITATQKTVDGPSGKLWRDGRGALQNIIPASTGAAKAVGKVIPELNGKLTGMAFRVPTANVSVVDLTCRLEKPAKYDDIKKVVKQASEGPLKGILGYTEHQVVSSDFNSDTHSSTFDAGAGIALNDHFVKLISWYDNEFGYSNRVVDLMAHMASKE
Sequence of Melanin-concentrating hormone receptor 1 (Q99705 whole entry): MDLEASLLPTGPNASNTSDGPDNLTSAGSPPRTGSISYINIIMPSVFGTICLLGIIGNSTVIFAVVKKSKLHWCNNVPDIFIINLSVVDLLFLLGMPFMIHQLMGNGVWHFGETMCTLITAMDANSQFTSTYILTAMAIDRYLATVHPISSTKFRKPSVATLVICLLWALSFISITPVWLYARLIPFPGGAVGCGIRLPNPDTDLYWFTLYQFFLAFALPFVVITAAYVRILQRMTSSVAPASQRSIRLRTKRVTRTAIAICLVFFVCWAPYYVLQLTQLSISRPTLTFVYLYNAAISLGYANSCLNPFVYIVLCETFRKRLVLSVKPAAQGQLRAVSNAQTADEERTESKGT

In general, IC50 refers to the concentration needed to halve the response being measured. `COc1ccc(/C=C2\SC(=S)N(C(CC(=O)O)C(=O)O)C2=O)cc1` (stereo not drawn): the IC50 in test [1] is > 100 µM (not active); in test [2] it was > 100 µM (inactive); in [3], > 100 µM (inactive); in [4], > 100 µM (inactive).

With `Cc1ccc(CN2CCCCC2C(=O)N2CCN(c3ccc([N+](=O)[O-])cc3)CC2)cc1` (stereo not drawn), the IC50 in [5] was 5.8 µM (active); in test [6], 9 µM (active).

For orientation: EC50 means the concentration at which the effect is half-maximal. As for `O=C(O)c1ccccc1N=Nc1ccc(O)cc1`, the IC50 is 22 µM (not active) at Protein Rev, > 89.2 µM (inactive) in the test on HEK293 [9] and 8.4 µM (active) in test [10]. For the same compound, the EC50 on Insulin-degrading enzyme [7] is 26.9 µM (inactive); with HEK293 [8] it was 50.3 µM (inactive); at Insulin-degrading enzyme [11], 22.3 µM (inactive).

What is called CC50 is the concentration at which the toxic effect on the cells reaches its halfway point. A word on the AC50: it is the midpoint of the concentration-response curve, whichever way the signal moves. `O=C(NCC1CC1)c1ccc(Nc2nc3cc(Br)ccc3[nH]2)cc1`: in [12], the CC50 is 7.81 µM (active). Further, the results for the IC50 (in the test “cells [13]”; in test [16]) were 14.5 µM (inactive) and 2.09 µM (active), respectively. Besides, on Trypsin, the AC50 is 9.83 µM (active). In addition, the EC50 was 14.6 µM (inactive) in test [14] and > 29.9 µM (inactive) in “cells [15]”.
